# Laboratory results taken from PubChem BioAssay AID2060605 (Molecular Pharmacology Branch, DTP, NCI, 2025).
# System: 947758-054-R-J2-PDC spheroid growth, percent test/control
# Experiment: Anticancer human tumor 947758-054-R-J2-PDC patient-derived colon adenocarcinoma cell line growth inhibition [CLK]
# Conditions: spheroids with HUVEC and MSC; for IC50: curve of first compound; for viability, T/C: stronger effect = lower value
# Text: A high-throughput screen of multi-cell type tumor spheroids was designed to identify active combinations of […] and targeted small molecules. Complex spheroids include a stromal component modeled by human endothelial cells (HUVEC) and fibroblasts modeled by human mesenchymal stem cells (MSCs). The concentration ranges selected for each drug and investigational agent were based upon clinically achievable concentrations if the clinical Cmax of the agent was known.
# Compounds. The drugs and investigational agents: cirtuvivint (SM08502; NSC835563), CC-671 (NSC850746), vemurafenib (NSC761431), tapotoclax (NSC804041), sotorasib (NSC818433), adagrasib (NSC831453), MRTX-1133 (NSC836407), BAY2416964 (NSC825713), copanlisib (NSC816437), inavolisib (NSC800729), abemaciclib (NSC768073), osimertinib (NSC779217), entinostat (NSC756642), eltanexor (KPT-8602, NSC794443), venetoclax (NSC766270), ceralasertib (NSC777638), bortezomib (NSC756655), olaparib (NSC753686), talazoparib (NSC767125), alisertib (NSC759677), peposertib (NSC802822), gemcitabine (NSC613327), 5-fluorouracil (NSC19893), SN-38 (NSC673596), oxaliplatin (NSC266046), paclitaxel (NSC125973), and doxorubicin (NSC123127), were obtained from the National Cancer Institute (NCI) Developmental Therapeutics Program Chemical Repository. The FDA-approved anticancer drug set is available from the Developmental Therapeutics Program at https://dtp.cancer.gov/organization/dscb/obtaining/available plates.htm. […] The stock solutions were prepared in dimethyl sulfoxide (DMSO, Sigma-Aldrich, St. Louis, MO, cat. D2650), except for the platinum complexes which were prepared in saline (Quality Biological, Gaithersburg, MD, cat. 114-055-101), at 800-fold the tested concentration and stored at -70 degrees C prior to their use. All drugs and investigational agents were tested over a range starting from a high concentration at or near the clinical Cmax and decreasing in half-log increments. If the clinical Cmax for an agent had not been determined, the highest concentration tested was 10 microM.
# Cell Culture. All cells were maintained in an incubator at 37 degrees C and 5% CO2 with 95% humidity. The PDC lines were cultured according to standard operating procedures established by the NCI PDMR. Briefly, all PDCs were thawed and cultured in Matrigel-coated flasks prepared with a working solution of 1X Ham's F-12 nutrient mix, without supplementation (Invitrogen, Waltham, MA, cat. 11765054), 100 U/mL penicillin-streptomycin (Invitrogen, cat. 15140122), and 2.5% Matrigel (Corning Inc., Corning, NY, cat. 354248) for the first three passages. The 947758-054-R-J2-PDC line was cultured in 6B/Colon 1A media, which includes advanced DMEM/F-12 (Thermo Fisher Scientific, cat. 12634028), 10 mM HEPES (Thermo Fisher Scientific, cat. 15630080), 1X GlutaMAX supplement (Thermo Fisher Scientific, cat. 35050061), 0.1 mg/mL primocin (InvivoGen, cat. ant-pm-2), 10% defined fetal bovine serum, heat inactivated (HyClone Laboratories Inc., cat. SH30070.03HI), 1.25 mM N-Acetyl-L-cysteine (Sigma-Aldrich, cat. A9165), 10 mM nicotinamide (Sigma-Aldrich, cat. N0636), 1X B-27 supplement (Thermo Fisher Scientific, cat. 17504044), 1X N-2 supplement (Thermo Fisher Scientific, cat. 17502048), and 10 microM Y-27632 dihydrochloride (Tocris Bioscience, cat. 1254). The 876862-298-R-J1-PDC was cultured in 6E media, which includes all 6B/Colon 1A media components plus 50% L-WRN conditioned media (ATCC, cat. CRL-3276), 50 ng/mL recombinant human EGF recombinant protein (hEGF; Thermo Fisher Scientific, cat. PHG0311), 10 ng/mL recombinant human fibroblast growth factor 10 (hGFG-10; PeproTech, cat. 100-26), 1 ng/mL recombinant human fibroblast growth factor 2 (hFGF-2; PeproTech, cat. 100-18B), and 1 µM prostaglandin E2 (PGE2; Tocris, cat. 2296). The 227483-062-R1-J1-PDC line was cultured in Panc media, containing all 6E components except hFGF-2, with the addition of 500 nM SB-431542 (Selleckchem, cat. S1067) and 10 nM gastrin (Tocris, cat. 3006). […]
# [1] = second compound 0.0316 µM, first compound 0.0316 µM
# [2] = second compound 0.0316 µM, first compound 0.1 µM
# [3] = second compound 0.0316 µM, first compound 0.316 µM
# [4] = second compound 0.0316 µM, first compound 1 µM
# [5] = second compound 0.0316 µM, first compound 3.16 µM
# [6] = second compound 0.0316 µM, first compound 10 µM
# [7] = second compound 0.1 µM, first compound 0.0316 µM
# [8] = second compound 0.1 µM, first compound 0.1 µM
# [9] = second compound 0.1 µM, first compound 0.316 µM
# [10] = second compound 0.1 µM, first compound 1 µM
# [11] = second compound 0.1 µM, first compound 3.16 µM
# [12] = second compound 0.1 µM, first compound 10 µM
# [13] = second compound 0.316 µM, first compound 0.0316 µM
# [14] = second compound 0.316 µM, first compound 0.1 µM
# [15] = second compound 0.316 µM, first compound 0.316 µM
# [16] = second compound 0.316 µM, first compound 1 µM
# [17] = second compound 0.316 µM, first compound 3.16 µM
# [18] = second compound 0.316 µM, first compound 10 µM
# [19] = second compound 1 µM, first compound 0.0316 µM
# [20] = second compound 1 µM, first compound 0.1 µM
# [21] = second compound 1 µM, first compound 0.316 µM
# [22] = second compound 1 µM, first compound 1 µM
# [23] = second compound 1 µM, first compound 3.16 µM
# [24] = second compound 1 µM, first compound 10 µM
# [25] = second compound 3.16 µM, first compound 0.0316 µM
# [26] = second compound 3.16 µM, first compound 0.1 µM
# [27] = second compound 3.16 µM, first compound 0.316 µM
# [28] = second compound 3.16 µM, first compound 1 µM
# [29] = second compound 3.16 µM, first compound 3.16 µM
# [30] = second compound 3.16 µM, first compound 10 µM
# [31] = second compound 10 µM, first compound 0.0316 µM
# [32] = second compound 10 µM, first compound 0.1 µM
# [33] = second compound 10 µM, first compound 0.316 µM
# [34] = second compound 10 µM, first compound 1 µM
# [35] = second compound 10 µM, first compound 3.16 µM
# [36] = second compound 10 µM, first compound 10 µM
# 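Further: spheroids exposed to compounds for one week before readout.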
# 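Wherever viability, T/C is given: 100% = DMSO vehicle control wells.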
smiles,measurement,setting,value
C#Cc1c(F)ccc2cc(O)cc(-c3ncc4c(N5CC6CCC(C5)N6)nc(OCC56CCCN5CC(F)C6)nc4c3F)c12 (centres undefined) + CN1CCN(c2cc(C(=O)Nc3cc4cc(-c5cnn(C)c5)ccc4cn3)ccn2)CC1,IC50,second compound 0.0316 µM,> 10000 nM
same,IC50,second compound 0.1 µM,> 10000 nM
same,IC50,second compound 0.316 µM,< 31.6 nM
same,IC50,second compound 1 µM,< 31.6 nM
same,IC50,second compound 3.16 µM,< 31.6 nM
same,IC50,second compound 10 µM,< 31.6 nM
same,"viability, T/C",[1],103%
same,"viability, T/C",[2],123%
same,"viability, T/C",[3],126%
same,"viability, T/C",[4],73.3%
same,"viability, T/C",[5],107%
same,"viability, T/C",[6],118%
same,"viability, T/C",[7],145%
same,"viability, T/C",[8],214%
same,"viability, T/C",[9],187%
same,"viability, T/C",[10],214%
same,"viability, T/C",[11],216%
same,"viability, T/C",[12],148%
same,"viability, T/C",[13],5.41%
same,"viability, T/C",[14],7.64%
same,"viability, T/C",[15],7.09%
same,"viability, T/C",[16],6.71%
same,"viability, T/C",[17],6%
same,"viability, T/C",[18],5.97%
same,"viability, T/C",[19],0.17%
same,"viability, T/C",[20],0.21%
same,"viability, T/C",[21],0.18%
same,"viability, T/C",[22],0.22%
same,"viability, T/C",[23],0.19%
same,"viability, T/C",[24],0.21%
same,"viability, T/C",[25],0.19%
same,"viability, T/C",[26],0.24%
same,"viability, T/C",[27],0.24%
same,"viability, T/C",[28],0.2%
same,"viability, T/C",[29],0.23%
same,"viability, T/C",[30],0.67%
same,"viability, T/C",[31],0.38%
same,"viability, T/C",[32],0.42%
same,"viability, T/C",[33],0.33%
same,"viability, T/C",[34],0.37%
same,"viability, T/C",[35],0.37%
same,"viability, T/C",[36],0.26%
CC(CO)NC(=O)c1cc(-c2ccc(Cl)cc2)nn(-c2cnn(C)c2)c1=O (centres undefined) + CN1CCN(c2cc(C(=O)Nc3cc4cc(-c5cnn(C)c5)ccc4cn3)ccn2)CC1,IC50,second compound 0.0316 µM,> 10000 nM
same,IC50,second compound 0.1 µM,> 10000 nM
same,IC50,second compound 0.316 µM,< 31.6 nM
same,IC50,second compound 1 µM,< 31.6 nM
same,IC50,second compound 3.16 µM,< 31.6 nM
same,IC50,second compound 10 µM,< 31.6 nM
same,"viability, T/C",[1],91.8%
same,"viability, T/C",[2],112%
same,"viability, T/C",[3],105%
same,"viability, T/C",[4],110%
same,"viability, T/C",[5],126%
same,"viability, T/C",[6],155%
same,"viability, T/C",[7],184%
same,"viability, T/C",[8],179%
same,"viability, T/C",[9],175%
same,"viability, T/C",[10],199%
same,"viability, T/C",[11],182%
same,"viability, T/C",[12],133%
same,"viability, T/C",[13],5.49%
same,"viability, T/C",[14],6.26%
same,"viability, T/C",[15],5.8%
same,"viability, T/C",[16],5.69%
same,"viability, T/C",[17],4.92%
same,"viability, T/C",[18],2.57%
same,"viability, T/C",[19],0.15%
same,"viability, T/C",[20],0.19%
same,"viability, T/C",[21],0.18%
same,"viability, T/C",[22],0.36%
same,"viability, T/C",[23],0.15%
same,"viability, T/C",[24],0.14%
same,"viability, T/C",[25],0.28%
same,"viability, T/C",[26],0.97%
same,"viability, T/C",[27],0.25%
same,"viability, T/C",[28],0.24%
same,"viability, T/C",[29],0.25%
same,"viability, T/C",[30],0.31%
same,"viability, T/C",[31],0.4%
same,"viability, T/C",[32],0.42%
same,"viability, T/C",[33],0.35%
same,"viability, T/C",[34],0.41%
same,"viability, T/C",[35],0.42%
same,"viability, T/C",[36],0.36%
